# Measurements as given in patent US20080269162A1, “Novel Medicaments for Anti-Retroviral Treatments” (priority 2006, published 2008).
# “And” between values parts separate entries of the source, which are not always exact repeats. Identical values can stand only once.
# Key:
# Format in all cases: cell-based, HIV
# [1] = test system: NDK (clade D) virus; test: RT activity and cell number as a function of the moment of incorporation, NDK virus; settings: 0.1 μM; for Number of cells, J7: day 7; for Number of cells, J3 / Quantity of RT measured, J3: day 3
# Text: The procedure was the same as that previously indicated with regard to the experiments carried out on MT4 cells; e.g., as in Example 2A.
# The results of the measurements done on days 3 and 7 are summarized in Table D; RT activity is expressed in dpm/mL and cells are expressed in 10^6 cells/mL.
# [2] = test system: BRU virus (clade B); test: Number of syncitia in MT4 cell culture infected by BRU virus; set-up: key: the absence of syncitia is indicated by a minus (−) sign; the (+), +, ++, ++T signs indicate an increasing number of syncitia in each well; the (+), +, ++, ++T signs indicate an increasing number of syncitia in each well; the (+), +, ++, ++T signs indicate an increasing number of syncitia in each well; the (+), +, ++, ++T signs indicate an increasing number of syncitia in each well; The indication “T” indicates the death of the cells; settings: 0.01 μM; for Number of Syncitia in the Culture (wells), J3: day 3; for Number of Syncitia in the Culture (wells), J4: day 4; for Number of Syncitia in the Culture (wells), J5: day 5; for Number of Syncitia in the Culture (wells), J6: day 6; for Number of Syncitia in the Culture (wells), J7: day 7
# Experimental: either by the observation, as a function of the quantity of sulphated polysaccharide used and of the time of said use, which can be made before, during or after infection, or even continuously, and of the reduction of the number of syncitia appearing in a culture of MT4 cells following infection by a HIV retrovirus (example 2A),
# (§1) Then infection of the cells was carried out by adding to each well, with the exception of those wells being used as control cells, 50 μL of previously titrated virus dilution.
# (§2) After an additional hour of incubation, the plate was centrifuged and the supernatant containing the residual virus was discarded.
# (§3) After 3 days of culture, the cells were diluted to half and the syncitia were observed using the inverse microscope from day 3 to day 7 after having been placed in suspension.
# (§4) In the third case, the MT4 cell culture was preincubated for one hour at 37° C., then the cells were infected, the whole was subjected to incubation for one hour at 37° C., then to centrifugation with the elimination of the supernatant containing the virus that had not penetrated into the cells.
# The washings and rinsings were done using RPMI without foetal calf serum.
# (§5) In each of the four types of experiments that have just been described, and as previously indicated, the cells were diluted to half after three days of culture and then the syncitia were observed using the inverted microscope from day 3 to day 7.
# (§6) In the experiments described in greater detail hereinafter, the absence of syncitia is indicated by a minus (−) sign and the (+), +, ++, ++T signs indicate an increasing number of syncitia in each well.
# (§7) The indication “T” indicates the death of the cells.
# The BRU virus (clade B) was used for infecting the MT4 cells at a viral dilution of 10^5, which corresponds to the quantity of viral particles capable of infecting 80% of the MT4 cultures (Tissue Culture Infections Dose 80%, TCID80%).
# [3] = test system: NDK virus; test: Number of syncitia in MT4 cell culture infected by NDK virus; set-up: key to Number of Syncitia in the Culture (wells), J3 / Number of Syncitia in the Culture (wells), J4 / Number of Syncitia in the Culture (wells), J5 / Number of Syncitia in the Culture (wells), J6: the absence of syncitia is indicated by a minus (−) sign; the (+), +, ++, ++T signs indicate an increasing number of syncitia in each well; the (+), +, ++, ++T signs indicate an increasing number of syncitia in each well; the (+), +, ++, ++T signs indicate an increasing number of syncitia in each well; the (+), +, ++, ++T signs indicate an increasing number of syncitia in each well; The indication “T” indicates the death of the cells; settings: for Number of Syncitia in the Culture (wells), J3: day 3; for Number of Syncitia in the Culture (wells), J4: day 4; for Number of Syncitia in the Culture (wells), J5: day 5; for Number of Syncitia in the Culture (wells), J6: day 6
# Experimental: as §1, §2, §3, §4, §5, §6, §7
# [4] = Continously, before, during and after
# [5] = Continuous, before, during and after infection
# [6] = Continuous, before, during and after infection, 0.4 μm
substance,measurement,setting,value
3′-azidothymidine [AZT],"Number of cells, J7",[1],3.2 10^6 Cells/mL and 1.6 10^6 Cells/mL
same,"Number of cells, J3",[1]; After infection,1.2 10^6 Cells/mL and 0.8 10^6 Cells/mL
same,"Quantity of RT measured, J3",[1]; After infection,1249 dpm/mL and 956 dpm/mL
same,"Number of cells, J7",[1]; After infection,1.8 10^6 Cells/mL and 3.2 10^6 Cells/mL
same,"Number of cells, J3",[1]; Before infection,1.4 10^6 Cells/mL and 0.8 10^6 Cells/mL
same,"Number of cells, J7",[1]; Before infection,2 10^6 Cells/mL and 3.8 10^6 Cells/mL
same,"Number of cells, J3",[1]; [4],1.7 10^6 Cells/mL and 1.3 10^6 Cells/mL
same,"Quantity of RT measured, J3",[1]; [4],399 dpm/mL and 750 dpm/mL
same,"Number of cells, J7",[1]; [4],3.6 10^6 Cells/mL and 3.2 10^6 Cells/mL
same,"Number of cells, J3",[1]; During dining room,1.9 10^6 Cells/mL and 1.6 10^6 Cells/mL
same,"Quantity of RT measured, J3",[1]; During dining room,1529 dpm/mL and 956 dpm/mL
same,"Number of Syncitia in the Culture (wells), J3",[2]; After infection,−
same,"Number of Syncitia in the Culture (wells), J4",[2]; After infection,−
same,"Number of Syncitia in the Culture (wells), J5",[2]; After infection,−
same,"Number of Syncitia in the Culture (wells), J6",[2]; After infection,−
same,"Number of Syncitia in the Culture (wells), J7",[2]; After infection,−
same,"Number of Syncitia in the Culture (wells), J3",[2]; Before infection,−
same,"Number of Syncitia in the Culture (wells), J4",[2]; Before infection,(+)
same,"Number of Syncitia in the Culture (wells), J5",[2]; Before infection,++ and +
same,"Number of Syncitia in the Culture (wells), J6",[2]; Before infection,++T and ++
same,"Number of Syncitia in the Culture (wells), J7",[2]; Before infection,++T
same,"Number of Syncitia in the Culture (wells), J3",[2]; [5],−
same,"Number of Syncitia in the Culture (wells), J4",[2]; [5],−
same,"Number of Syncitia in the Culture (wells), J5",[2]; [5],−
same,"Number of Syncitia in the Culture (wells), J6",[2]; [5],−
same,"Number of Syncitia in the Culture (wells), J7",[2]; [5],−
same,"Number of Syncitia in the Culture (wells), J3",[2]; During infection,−
same,"Number of Syncitia in the Culture (wells), J4",[2]; During infection,(+)
same,"Number of Syncitia in the Culture (wells), J5",[2]; During infection,+
same,"Number of Syncitia in the Culture (wells), J6",[2]; During infection,++
same,"Number of Syncitia in the Culture (wells), J7",[2]; During infection,++T
same,"Number of Syncitia in the Culture (wells), J3","[3]; After infection, 0.4 μm",−
same,"Number of Syncitia in the Culture (wells), J4","[3]; After infection, 0.4 μm",−
same,"Number of Syncitia in the Culture (wells), J5","[3]; After infection, 0.4 μm",−
same,"Number of Syncitia in the Culture (wells), J6",[3]; After infection,−
same,"Number of Syncitia in the Culture (wells), J3","[3]; Before infection, 0.4 μg/mL",−
same,"Number of Syncitia in the Culture (wells), J4","[3]; Before infection, 0.4 μg/mL",+ and −
same,"Number of Syncitia in the Culture (wells), J5","[3]; Before infection, 0.4 μg/mL",++ and −
same,"Number of Syncitia in the Culture (wells), J6","[3]; Before infection, 0.4 μg/mL",T and (+)
same,"Number of Syncitia in the Culture (wells), J3",[3]; [6],−
same,"Number of Syncitia in the Culture (wells), J4",[3]; [6],−
same,"Number of Syncitia in the Culture (wells), J5",[3]; [6],−
same,"Number of Syncitia in the Culture (wells), J6",[3]; [5],−
same,"Number of Syncitia in the Culture (wells), J3","[3]; During infection, 0.4 μm",−
same,"Number of Syncitia in the Culture (wells), J4","[3]; During infection, 0.4 μm",−
same,"Number of Syncitia in the Culture (wells), J5","[3]; During infection, 0.4 μm",−
same,"Number of Syncitia in the Culture (wells), J6",[3]; During infection,−
